In the supplement of paper PMC10307832 one finds relative viability data, which are given here for one cell line.

Common to all, as to assay: relative viability (nuclei count vs DMSO), 5 days (fraction); higher = more cells survive
Compound in the test “OSI-027 + Palbociclib”: COc1cccc2cc(-c3nc([C@H]4CC[C@H](C(=O)O)CC4)n4ncnc(N)c34)[nH]c12 [OSI-027] + CC(=O)c1c(C)c2cnc(Nc3ccc(N4CCNCC4)cn3)nc2n(C2CCCC2)c1=O [Palbociclib] (partner 0.5 µM)
The gist of the method:
(§1)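 Values are medians from duplicate plates. Each reflects relative viability, defined as the nuclei count of treated wells over that of vehicle wells. Lung cancer cell lines in 1536-well plates were pin-tool dosed one day after seeding with one drug alone or with a fixed anchor-drug dose plus five library-drug doses (not always all listed) in √10 steps, then fixed, stained and imaged at 4× after 5 days.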

Compound in the test “Vemurafenib + Linsitinib”: CCCS(=O)(=O)Nc1ccc(F)c(C(=O)c2c[nH]c3ncc(-c4ccc(Cl)cc4)cc23)c1F [Vemurafenib] + C[C@]1(O)C[C@@H](c2nc(-c3ccc4ccc(-c5ccccc5)nc4c3)c3c(N)nccn32)C1 [Linsitinib] (partner 1 µM)
In outline:
as §1

Compound in the test “OSI-027 + Dasatinib”: COc1cccc2cc(-c3nc([C@H]4CC[C@H](C(=O)O)CC4)n4ncnc(N)c34)[nH]c12 [OSI-027] + Cc1nc(Nc2ncc(C(=O)Nc3c(C)cccc3Cl)s2)cc(N2CCN(CCO)CC2)n1 [Dasatinib] (partner 0.075 µM)
The gist of the method: as §1

Compound in the test “OSI-027 + Linsitinib”: COc1cccc2cc(-c3nc([C@H]4CC[C@H](C(=O)O)CC4)n4ncnc(N)c34)[nH]c12 [OSI-027] + C[C@]1(O)C[C@@H](c2nc(-c3ccc4ccc(-c5ccccc5)nc4c3)c3c(N)nccn32)C1 [Linsitinib] (partner 1 µM)
In outline: as §1

Consider UMC-11, for which the relative viability with OSI-027 + Palbociclib (first compound 0.01 µM) turned out to be 0.314; with OSI-027 + Palbociclib (first compound 0.03162 µM) it was 0.371; in the test with OSI-027 + Palbociclib (first compound 0.1 µM), 0.307; with OSI-027 + Palbociclib (first compound 0.3162 µM), 0.301; in the test with OSI-027 + Palbociclib (first compound 1 µM), 0.314; with Vemurafenib + Linsitinib (first compound 0.03162 µM), 0.945. Also, the relative viability is 0.989 in the test with Vemurafenib + Linsitinib (first compound 0.1 µM); 1.06 with Vemurafenib + Linsitinib (first compound 0.3162 µM); 0.949 with Vemurafenib + Linsitinib (first compound 1 µM); 0.537 with OSI-027 + Dasatinib (first compound 0.01 µM); 0.457 in the test with OSI-027 + Dasatinib (first compound 0.03162 µM); 0.404 in the test with OSI-027 + Dasatinib (first compound 0.1 µM). Besides, the relative viability was 0.434 in the test with OSI-027 + Dasatinib (first compound 0.3162 µM); 0.299 with OSI-027 + Dasatinib (first compound 1 µM); 1 with OSI-027 + Linsitinib (first compound 0.01 µM); 1.04 with OSI-027 + Linsitinib (first compound 0.03162 µM); 0.944 with OSI-027 + Linsitinib (first compound 0.1 µM); 0.676 with OSI-027 + Linsitinib (first compound 0.3162 µM). Moreover, the relative viability with OSI-027 + Linsitinib (first compound 1 µM) was 0.468.
